Laboratory results from patent publication US8853418B2, “Cyclopentylpyrazoles as N-type calcium channel blockers” (Janssen Pharmaceutica NV, priority 2012, dated 2014).
Read-outs that look alike come from different tables or passages of the source.

Experiments:
N-type calcium channel = N-type calcium channel (Homo sapiens, UniProt Q00975); assay: Automated Electrophysiology Assay (QPatch-HT whole-cell patch clamp; low- and high-frequency stimulation); assay type: cell-based
[1] = biological target: N-type calcium channel (α1B (Cav2.2), β3 and α2δ subunits) (Homo sapiens, UniProt Q00975); assay: Functional Assay: Antagonism of N-Type Calcium Channel (FDSS calcium mobilization, KCl depolarization); assay type: cell-based; conditions: for IC50: HEK cell line, 50 mM KCl depolarization, six-point concentration-response, read-out: FDSS IC50
Procedure, shortened: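 HEK cells stably co-expressing α1B (Cav2.2), β3 and α2δ were loaded with calcium dye, then given compound with fluorescence recorded for 5 min before 50 mM KCl depolarisation and 3 min more reading. IC50 came from six-point curves of maximal fluorescence, normalised to KCl maximum and buffer minimum.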

[2] = high-frequency stimulation (15th pulse), read-out: QPatch at High Frequency % Inhibition
[3] = low frequency, read-out: QPatch at Low Frequency % Inhibition
[4] = 1 μM, high-frequency stimulation (15th pulse), read-out: QPatch at High Frequency % Inhibition
[5] = low frequency, 1 μM, read-out: QPatch at Low Frequency % Inhibition

Sequence of N-type calcium channel (α1B (Cav2.2), β3 and α2δ subunits) (Q00975 whole entry): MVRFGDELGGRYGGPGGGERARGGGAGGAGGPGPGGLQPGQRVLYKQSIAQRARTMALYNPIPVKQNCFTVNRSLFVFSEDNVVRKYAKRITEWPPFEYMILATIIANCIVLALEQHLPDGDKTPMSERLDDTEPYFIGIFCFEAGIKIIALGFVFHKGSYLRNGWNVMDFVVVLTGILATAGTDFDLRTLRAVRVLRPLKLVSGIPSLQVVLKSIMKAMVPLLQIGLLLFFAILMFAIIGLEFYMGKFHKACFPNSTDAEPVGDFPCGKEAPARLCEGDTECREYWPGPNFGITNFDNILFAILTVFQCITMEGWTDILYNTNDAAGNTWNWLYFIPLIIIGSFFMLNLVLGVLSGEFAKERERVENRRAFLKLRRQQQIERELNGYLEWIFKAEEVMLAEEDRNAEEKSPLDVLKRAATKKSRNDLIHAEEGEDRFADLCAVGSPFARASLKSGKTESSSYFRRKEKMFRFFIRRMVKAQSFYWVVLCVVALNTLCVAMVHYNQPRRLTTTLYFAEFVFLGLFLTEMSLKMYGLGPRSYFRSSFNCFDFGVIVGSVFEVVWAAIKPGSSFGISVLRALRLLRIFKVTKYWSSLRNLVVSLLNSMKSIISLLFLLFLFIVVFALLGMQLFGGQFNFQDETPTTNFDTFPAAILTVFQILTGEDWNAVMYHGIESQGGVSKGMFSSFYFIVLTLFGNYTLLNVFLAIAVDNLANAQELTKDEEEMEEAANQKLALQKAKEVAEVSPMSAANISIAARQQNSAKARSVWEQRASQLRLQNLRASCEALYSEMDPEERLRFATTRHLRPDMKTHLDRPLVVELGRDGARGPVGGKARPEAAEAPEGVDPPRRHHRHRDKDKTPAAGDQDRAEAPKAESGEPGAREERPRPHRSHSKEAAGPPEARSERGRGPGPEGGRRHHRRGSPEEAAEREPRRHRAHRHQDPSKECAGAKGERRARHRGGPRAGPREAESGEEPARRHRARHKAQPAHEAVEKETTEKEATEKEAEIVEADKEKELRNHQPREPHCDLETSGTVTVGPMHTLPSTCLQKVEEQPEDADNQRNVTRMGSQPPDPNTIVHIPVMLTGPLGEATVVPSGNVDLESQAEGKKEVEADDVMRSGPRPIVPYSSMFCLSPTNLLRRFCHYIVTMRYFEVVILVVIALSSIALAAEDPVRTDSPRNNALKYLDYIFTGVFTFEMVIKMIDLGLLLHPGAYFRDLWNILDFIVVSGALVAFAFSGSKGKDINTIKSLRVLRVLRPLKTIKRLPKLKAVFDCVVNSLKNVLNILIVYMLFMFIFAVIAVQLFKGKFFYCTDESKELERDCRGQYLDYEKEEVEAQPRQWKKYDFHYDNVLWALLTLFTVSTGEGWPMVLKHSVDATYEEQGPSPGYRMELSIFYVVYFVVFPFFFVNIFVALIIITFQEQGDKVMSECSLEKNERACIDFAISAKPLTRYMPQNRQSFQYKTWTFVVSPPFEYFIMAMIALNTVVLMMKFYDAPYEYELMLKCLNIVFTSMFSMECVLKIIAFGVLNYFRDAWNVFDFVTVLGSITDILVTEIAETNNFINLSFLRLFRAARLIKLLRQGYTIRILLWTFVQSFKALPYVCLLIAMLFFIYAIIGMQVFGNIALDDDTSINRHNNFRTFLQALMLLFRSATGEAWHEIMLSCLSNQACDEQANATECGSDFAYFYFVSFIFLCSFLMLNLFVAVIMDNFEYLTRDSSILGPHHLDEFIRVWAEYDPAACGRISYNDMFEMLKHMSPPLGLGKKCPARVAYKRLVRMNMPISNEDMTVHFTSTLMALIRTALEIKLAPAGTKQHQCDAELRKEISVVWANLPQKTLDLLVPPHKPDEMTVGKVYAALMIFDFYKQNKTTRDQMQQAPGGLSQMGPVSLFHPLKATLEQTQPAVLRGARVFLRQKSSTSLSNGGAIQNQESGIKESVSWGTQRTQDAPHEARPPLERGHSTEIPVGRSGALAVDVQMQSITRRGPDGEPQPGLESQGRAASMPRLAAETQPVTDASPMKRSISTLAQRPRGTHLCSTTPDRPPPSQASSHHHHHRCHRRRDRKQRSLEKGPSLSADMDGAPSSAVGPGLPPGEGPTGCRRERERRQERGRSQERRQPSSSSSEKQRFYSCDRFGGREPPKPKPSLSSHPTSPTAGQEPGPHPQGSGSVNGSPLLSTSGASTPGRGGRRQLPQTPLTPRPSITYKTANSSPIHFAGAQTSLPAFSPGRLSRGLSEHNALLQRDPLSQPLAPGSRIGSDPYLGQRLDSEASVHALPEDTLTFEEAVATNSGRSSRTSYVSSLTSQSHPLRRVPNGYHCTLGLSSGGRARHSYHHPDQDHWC
Sequence of N-type calcium channel (α1B (Cav2.2), β3 and α2δ subunits) (P54284 whole entry partner): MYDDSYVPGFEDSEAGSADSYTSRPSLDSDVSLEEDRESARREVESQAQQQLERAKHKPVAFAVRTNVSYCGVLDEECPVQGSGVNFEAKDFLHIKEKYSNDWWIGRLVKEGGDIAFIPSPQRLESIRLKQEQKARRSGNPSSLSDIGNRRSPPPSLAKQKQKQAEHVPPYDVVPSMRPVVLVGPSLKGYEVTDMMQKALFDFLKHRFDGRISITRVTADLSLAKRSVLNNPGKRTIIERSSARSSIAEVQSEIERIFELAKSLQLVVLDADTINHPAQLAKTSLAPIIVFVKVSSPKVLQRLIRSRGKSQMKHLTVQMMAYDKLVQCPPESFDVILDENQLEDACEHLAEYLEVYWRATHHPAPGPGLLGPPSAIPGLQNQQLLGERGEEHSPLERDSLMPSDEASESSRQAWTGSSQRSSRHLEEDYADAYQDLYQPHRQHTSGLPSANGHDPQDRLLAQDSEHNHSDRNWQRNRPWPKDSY
Sequence of N-type calcium channel (α1B (Cav2.2), β3 and α2δ subunits) (P54289 25-946 partner limits assumed): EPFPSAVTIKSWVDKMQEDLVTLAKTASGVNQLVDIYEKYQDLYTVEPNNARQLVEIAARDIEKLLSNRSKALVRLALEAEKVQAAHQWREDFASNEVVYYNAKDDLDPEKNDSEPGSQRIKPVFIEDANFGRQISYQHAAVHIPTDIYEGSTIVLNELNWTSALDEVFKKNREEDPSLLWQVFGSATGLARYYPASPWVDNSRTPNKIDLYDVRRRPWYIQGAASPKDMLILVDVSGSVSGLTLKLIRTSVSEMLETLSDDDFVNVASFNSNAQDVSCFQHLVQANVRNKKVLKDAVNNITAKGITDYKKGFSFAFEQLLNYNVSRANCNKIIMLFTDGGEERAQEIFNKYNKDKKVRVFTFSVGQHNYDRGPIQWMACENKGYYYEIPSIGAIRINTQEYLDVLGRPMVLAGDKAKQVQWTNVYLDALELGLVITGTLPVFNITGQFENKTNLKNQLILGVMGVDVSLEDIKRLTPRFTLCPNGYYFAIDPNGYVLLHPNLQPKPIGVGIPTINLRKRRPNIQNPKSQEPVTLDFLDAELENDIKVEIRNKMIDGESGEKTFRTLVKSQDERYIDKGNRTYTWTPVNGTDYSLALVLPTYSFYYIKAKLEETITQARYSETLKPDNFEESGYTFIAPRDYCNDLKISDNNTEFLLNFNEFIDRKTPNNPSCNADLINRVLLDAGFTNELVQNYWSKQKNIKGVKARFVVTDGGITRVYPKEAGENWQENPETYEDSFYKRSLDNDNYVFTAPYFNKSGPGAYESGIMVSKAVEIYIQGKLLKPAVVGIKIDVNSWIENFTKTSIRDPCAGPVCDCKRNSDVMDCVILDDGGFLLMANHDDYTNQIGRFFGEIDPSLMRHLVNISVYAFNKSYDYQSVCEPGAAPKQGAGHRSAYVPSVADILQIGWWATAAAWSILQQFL
Sequence of N-type calcium channel (α1B (Cav2.2), β3 and α2δ subunits) (P54289 947-1103 partner limits assumed): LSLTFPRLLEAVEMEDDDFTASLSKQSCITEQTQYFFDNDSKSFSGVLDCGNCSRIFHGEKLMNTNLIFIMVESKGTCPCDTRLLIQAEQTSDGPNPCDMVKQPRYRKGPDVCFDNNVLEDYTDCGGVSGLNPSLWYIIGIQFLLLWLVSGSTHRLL
Sequence of N-type calcium channel (Q00975 whole entry): as the sequence (Q00975 whole entry) above
Sequence of N-type calcium channel (P54284 whole entry partner): as the sequence (P54284 whole entry partner) above
Sequence of N-type calcium channel (P54289 25-946 partner limits assumed): as the sequence (P54289 25-946 partner limits assumed) above
Sequence of N-type calcium channel (P54289 947-1103 partner limits assumed): as the sequence (P54289 947-1103 partner limits assumed) above

COc1ccccc1-n1nc2c(c1-c1ccc(Cl)cc1)CC(N1CCOCC1)C2 (stereo not shown) [Compound 68, 3-(4-chlorophenyl)-2-(2-methoxyphenyl)-5-morpholin-4-yl-2,4,5,6-tetrahydrocyclopenta[c]pyrazole]
inhibition at 0.1 µM (N-type calcium channel; [2]): 31%
inhibition at 0.1 µM (N-type calcium channel; [3]): 33%
inhibition at 0.33 µM ([1]; 0.33 μM): 95%
IC50 [1]: 16 nM

COc1ccccc1-n1nc2c(c1-c1ccc(Cl)cc1)C[C@H](O[Si](C)(C)C)C2 [Compound 69, (5S)-3-(4-chlorophenyl)-2-(2-methoxyphenyl)-5-[(trimethylsilyl)oxy]-2,4,5,6-tetrahydrocyclopenta[c]pyrazole]
inhibition at 0.1 µM (N-type calcium channel; [2]): 26%
inhibition at 0.1 µM (N-type calcium channel; [3]): 15%
inhibition at 0.33 µM ([1]; 0.33 μM): 93%
IC50 [1]: 9.6 nM

CCC(CC)C(=O)O[C@@H]1Cc2nn(-c3ccccc3OC)c(-c3ccc(Cl)cc3)c2C1 [Compound 70, (5S)-3-(4-chlorophenyl)-2-(2-methoxyphenyl)-2,4,5,6-tetrahydrocyclopenta[c]pyrazol-5-yl 2-ethylbutanoate]
inhibition at 0.1 µM (N-type calcium channel; [2]): 19%
inhibition at 0.33 µM ([1]; 0.33 μM): 96%
IC50 [1]: 15 nM

COc1ccccc1-n1nc2c(c1-c1ccc(Cl)cc1)C[C@H](OC1CCCCO1)C2 (stereo partly drawn) [Compound 76, (5S)-3-(4-chlorophenyl)-2-(2-methoxyphenyl)-5-(tetrahydro-2H-pyran-2-yloxy)-2,4,5,6-tetrahydrocyclopenta[c]pyrazole]
inhibition at 0.1 µM (N-type calcium channel; [2]): 42%
inhibition at 0.1 µM (N-type calcium channel; [3]): 27%
inhibition at 0.33 µM ([1]; 0.33 μM): 92%
IC50 [1]: 28 nM

COc1ccccc1-n1nc2c(c1-c1ccc(Cl)cc1)C[C@H](OC(=O)C1CCCCC1)C2 [Compound 78, (5S)-3-(4-chlorophenyl)-2-(2-methoxyphenyl)-2,4,5,6-tetrahydrocyclopenta[c]pyrazol-5-yl cyclohexanecarboxylate]
inhibition at 0.1 µM (N-type calcium channel; [2]): 27%
inhibition at 0.1 µM (N-type calcium channel; [3]): 15%
inhibition at 0.33 µM ([1]; 0.33 μM): 78%
IC50 [1]: 93 nM

COc1ccccc1-n1nc2c(c1-c1ccc(Cl)cc1)C[C@H](OC(=O)C1CCCC1)C2 [Compound 79, (5S)-3-(4-chlorophenyl)-2-(2-methoxyphenyl)-2,4,5,6-tetrahydrocyclopenta[c]pyrazol-5-yl cyclopentanecarboxylate]
inhibition at 0.1 µM (N-type calcium channel; [2]): 11%
inhibition at 0.1 µM (N-type calcium channel; [3]): -7%
inhibition at 0.33 µM ([1]; 0.33 μM): 82%
IC50 [1]: 75 nM

COc1ccccc1-n1nc2c(c1-c1ccc(Cl)cc1)C[C@H](OC(=O)C1CCC1)C2 [Compound 80, (5S)-3-(4-chlorophenyl)-2-(2-methoxyphenyl)-2,4,5,6-tetrahydrocyclopenta[c]pyrazol-5-yl cyclobutanecarboxylate]
inhibition at 0.1 µM (N-type calcium channel; [2]): 22%
inhibition at 1 µM (N-type calcium channel; [4]): 43%
inhibition at 0.1 µM (N-type calcium channel; [3]): 7%
inhibition at 1 µM (N-type calcium channel; [5]): 6%
inhibition at 0.33 µM ([1]; 0.33 μM): 89%
IC50 [1]: 31 nM

COc1ccccc1-n1nc2c(c1-c1ccc(Cl)cc1)C[C@H](OC(=O)C(C)C)C2 [Compound 81, (5S)-3-(4-chlorophenyl)-2-(2-methoxyphenyl)-2,4,5,6-tetrahydrocyclopenta[c]pyrazol-5-yl 2-methylpropanoate]
inhibition at 0.1 µM (N-type calcium channel; [2]): 12%
inhibition at 0.1 µM (N-type calcium channel; [3]): -4%
inhibition at 0.33 µM ([1]; 0.33 μM): 86%
IC50 [1]: 48 nM

COc1ccccc1-n1nc2c(c1-c1ccc(Cl)cc1)C[C@H](OCC(C)C)C2 [Compound 85, (5S)-3-(4-chlorophenyl)-2-(2-methoxyphenyl)-5-(2-methylpropoxy)-2,4,5,6-tetrahydrocyclopenta[c]pyrazole]
inhibition at 0.1 µM (N-type calcium channel; [2]): 2%
inhibition at 0.1 µM (N-type calcium channel; [3]): -5%
inhibition at 0.33 µM ([1]; 0.33 μM): 94%
IC50 [1]: 23 nM

COc1ccccc1-n1nc2c(c1-c1ccc(Cl)cc1)C[C@H](OC1CCCCC1)C2 [Compound 88, (5S)-3-(4-chlorophenyl)-5-(cyclohexyloxy)-2-(2-methoxyphenyl)-2,4,5,6-tetrahydrocyclopenta[c]pyrazole]
inhibition at 0.1 µM (N-type calcium channel; [2]): 33%
inhibition at 0.1 µM (N-type calcium channel; [3]): 22%
inhibition at 0.33 µM ([1]; 0.33 μM): 83%
IC50 [1]: 43 nM

COc1ccccc1-n1nc2c(c1-c1ccc(Cl)cc1)C[C@H](O[C@H]1C[C@@H]3CC[C@H]1C3)C2 [Compound 89, (5S)-5-[(1S,2S,4R)-bicyclo[2.2.1]hept-2-yloxy]-3-(4-chlorophenyl)-2-(2-methoxyphenyl)-2,4,5,6-tetrahydrocyclopenta[c]pyrazole]
inhibition at 0.1 µM (N-type calcium channel; [2]): 26%
inhibition at 0.1 µM (N-type calcium channel; [3]): 6%
inhibition at 0.33 µM ([1]; 0.33 μM): 85%
IC50 [1]: 49 nM

COc1ccccc1-n1nc2c(c1-c1ccc(Cl)cc1)C[C@H](OC1CCCC1)C2 [Compound 90, (5S)-3-(4-chlorophenyl)-5-(cyclopentyloxy)-2-(2-methoxyphenyl)-2,4,5,6-tetrahydrocyclopenta[c]pyrazole]
inhibition at 0.1 µM (N-type calcium channel; [2]): 21%
inhibition at 0.1 µM (N-type calcium channel; [3]): 10%
inhibition at 0.33 µM ([1]; 0.33 μM): 89%
IC50 [1]: 22 nM

COc1ccccc1-n1nc2c(c1-c1ccc(C#N)cc1)CC1(C2)OCC(C)(C)CO1 [Compound 91, 4-[2-(2-methoxyphenyl)-5′,5′-dimethyl-2,6-dihydro-4H-spiro[cyclopenta[c]pyrazole-5,2′-[1,3]dioxan]-3-yl]benzonitrile]
inhibition at 0.01 µM (N-type calcium channel; [2]): 20%
inhibition at 0.1 µM (N-type calcium channel; [2]): 39%
inhibition at 1 µM (N-type calcium channel; [4]): 61%
inhibition at 0.01 µM (N-type calcium channel; [3]): 19%
inhibition at 0.1 µM (N-type calcium channel; [3]): 28%
inhibition at 1 µM (N-type calcium channel; [5]): 40%
inhibition at 0.33 µM ([1]; 0.33 μM): 89%
IC50 [1]: 19 nM

COc1ccccc1-n1nc2c(c1-c1ccc(N(C)C)cc1)CC1(C2)OCC(C)(C)CO1 [Compound 93, 4-[2-(2-methoxyphenyl)-5′,5′-dimethyl-2,6-dihydro-4H-spiro[cyclopenta[c]pyrazole-5,2′-[1,3]dioxan]-3-yl]-N,N-dimethylaniline]
inhibition at 0.1 µM (N-type calcium channel; [2]): 30%
inhibition at 0.1 µM (N-type calcium channel; [3]): 12%
inhibition at 0.33 µM ([1]; 0.33 μM): 91%
IC50 [1]: 12 nM

COc1ccc(-c2c3c(nn2-c2ccccc2OC)CC2(C3)OCC(C)(C)CO2)cn1 [Compound 96, 2-(2-methoxyphenyl)-3-(6-methoxypyridin-3-yl)-5′,5′-dimethyl-2,6-dihydro-4H-spiro[cyclopenta[c]pyrazole-5,2′-[1,3]dioxane]]
inhibition at 0.1 µM (N-type calcium channel; [2]): 20%
inhibition at 0.1 µM (N-type calcium channel; [3]): -1%
inhibition at 0.33 µM ([1]; 0.33 μM): 81%
IC50 [1]: 34 nM

COc1ccccc1-n1nc2c(c1-c1ccc(N(C)C)nc1)CC1(C2)OCC(C)(C)CO1 [Compound 97, 5-[2-(2-methoxyphenyl)-5′,5′-dimethyl-2,6-dihydro-4H-spiro[cyclopenta[c]pyrazole-5,2′-[1,3]dioxan]-3-yl]-N,N-dimethylpyridin-2-amine]
inhibition at 0.1 µM (N-type calcium channel; [2]): 33%
inhibition at 0.1 µM (N-type calcium channel; [3]): 27%
inhibition at 0.33 µM ([1]; 0.33 μM): 88%
IC50 [1]: 29 nM

COc1ccccc1-n1nc2c(c1-c1ccc(Cl)cc1)CC1(C2)O[C@H](C)[C@@H](C)O1 [Compound 98, (4′R,5′R)-3-(4-chlorophenyl)-2-(2-methoxyphenyl)-4′,5′-dimethyl-2,6-dihydro-4H-spiro[cyclopenta[c]pyrazole-5,2′-[1,3]dioxolane]]
inhibition at 0.1 µM (N-type calcium channel; [2]): 28%
inhibition at 0.1 µM (N-type calcium channel; [3]): -6%
inhibition at 0.33 µM ([1]; 0.33 μM): 102%
IC50 [1]: 5.9 nM

COc1ccccc1-n1nc2c(c1-c1ccc(Cl)cc1)CC1(C2)O[C@@H](C)[C@H](C)O1 [Compound 99, (4′S,5′S)-3-(4-chlorophenyl)-2-(2-methoxyphenyl)-4′,5′-dimethyl-2,6-dihydro-4H-spiro[cyclopenta[c]pyrazole-5,2′-[1,3]dioxolane]]
inhibition at 0.1 µM (N-type calcium channel; [2]): 34%
inhibition at 0.1 µM (N-type calcium channel; [3]): -4%
inhibition at 0.33 µM ([1]; 0.33 μM): 93%
IC50 [1]: 13 nM

COc1ccccc1-n1nc2c(c1-c1ccc(Cl)cc1)CC1(C2)O[C@H](C)C[C@@H](C)O1 (stereo partly drawn) [Compound 100, (4′R,6′R)-3-(4-chlorophenyl)-2-(2-methoxyphenyl)-4′,6′-dimethyl-2,6-dihydro-4H-spiro[cyclopenta[c]pyrazole-5,2′-[1,3]dioxane]]
inhibition at 0.01 µM (N-type calcium channel; [2]): 21%
inhibition at 0.1 µM (N-type calcium channel; [2]): 69%
inhibition at 1 µM (N-type calcium channel; [4]): 83%
inhibition at 0.01 µM (N-type calcium channel; [3]): 10%
inhibition at 0.1 µM (N-type calcium channel; [3]): 46%
inhibition at 1 µM (N-type calcium channel; [5]): 72%
inhibition at 0.33 µM ([1]; 0.33 μM): 101%
IC50 [1]: 4.4 nM

COc1ccccc1-n1nc2c(c1-c1ccc(Cl)cc1)CC1(C2)O[C@@H](C)C[C@H](C)O1 (stereo partly drawn) [Compound 101, (4′S,6′S)-3-(4-chlorophenyl)-2-(2-methoxyphenyl)-4′,6′-dimethyl-2,6-dihydro-4H-spiro[cyclopenta[c]pyrazole-5,2′-[1,3]dioxane]]
inhibition at 0.1 µM (N-type calcium channel; [2]): 40%
inhibition at 0.1 µM (N-type calcium channel; [3]): 3%
inhibition at 0.33 µM ([1]; 0.33 μM): 98%
IC50 [1]: 27 nM

COc1ccccc1-n1nc2c(c1-c1ccc(Cl)cc1)CC1(C2)O[C@@H](C)[C@@H](C)O1 (stereo partly drawn) [Compound 102, (4′R,5′S)-3-(4-chlorophenyl)-2-(2-methoxyphenyl)-4′,5′-dimethyl-2,6-dihydro-4H-spiro[cyclopenta[c]pyrazole-5,2′-[1,3]dioxolane]]
inhibition at 1 µM (N-type calcium channel; [4]): 58%
inhibition at 1 µM (N-type calcium channel; [5]): 42%
inhibition at 0.33 µM ([1]; 0.33 μM): 97%
IC50 [1]: 7.6 nM

COc1ccccc1-n1nc2c(c1-c1ccc(Cl)cc1)CC1(C2)O[C@@H](C)[C@@H](C)O1 (stereo partly drawn) [Compound 103, (4′R,5′S)-3-(4-chlorophenyl)-2-(2-methoxyphenyl)-4′,5′-dimethyl-2,6-dihydro-4H-spiro[cyclopenta[c]pyrazole-5,2′-[1,3]dioxolane]]
inhibition at 0.1 µM (N-type calcium channel; [2]): 46%
QPatch at High Frequency % Inhibition (N-type calcium channel; 1 μM, high-frequency stimulation (15th pulse)): 69%
inhibition at 0.01 µM (N-type calcium channel; [3]): -21%
inhibition at 0.1 µM (N-type calcium channel; [3]): 12%
QPatch at Low Frequency % Inhibition (N-type calcium channel; low frequency, 1 μM): 36%
% Inhibition (%) at 0.33 μM ([1]; 0.33 μM): 101%
IC50 [1]: 4.8 nM
